The values below are quoted from earlier work in patent US20150104527A1, “AQUEOUS IONIC SOLUTION CONTAINING SEAWATER AND AT LEAST ONE COMPOUND THAT IS ORIGINALLY IMMISCIBLE WITH SEA WATER” (LABORATOIRE DE LA MER, priority 2011, published 2015).

Data set [1] has as its system nasal mucus membrane. To be noted: observed in patients even for short use; Graf P et al, 1999.
Data set [2] relates to human neutrophiles. To be noted: even at low concentration; Boston et al, 2003.

For benzalkonium chloride, the “effect on the nasal mucus membrane” value in data set [1] is on record as “deleterious effects”. In addition, the “toxicity for human neutrophiles” value in data set [2] is given as “toxic”.
